Series [1] is described as follows: Detection of test substance in rat plasma by LC-MS/MS (Test Example 3). It counts as in vivo. Conditions: 100 nmol/kg i.v.; for Maximum time of detection after administration: rat plasma, LC-MS/MS, time at which the test substance was finally detected. The method in brief:
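Reported as final detection time: LC-MS/MS measured test substance in rat plasma collected from the jugular vein at 15, 30, 60, 90, 120, 180 and 240 min post-dose. Sample prep used a labelled hANP internal standard, acidic solvent, and sequential 50K then 3K ultrafiltration, keeping the 3K retentate.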

In series [2] the test system is cGMP concentration in plasma. Briefly: cGMP concentration in plasma of rats after intravenous injection (Test Example 3). It counts as in vivo. Conditions: rat, 100 nmol/kg i.v. The protocol: The duration time (the effect of persistently elevating cGMP in blood and the time for which a test substance was detectable in blood) of each modified peptide prepared in Example 2 in the blood of rats was examined by the following method:
Before the administration and 15, 30, 60, 90, 120, 180, and 240 minutes after the administration, blood was sampled (200 μL/sampling) over time from the jugular vein. The blood samples were immediately left on ice.
The collected blood samples were centrifuged at 5000 rpm at 4° C. for 5 minutes by use of a centrifuge (Sigma 4K15, rotor: Nr12130-H). The separated plasma samples were divided into two types (samples for PK measurement and for cGMP measurement) and stored at −80° C. until measurement.
The cGMP concentration in plasma was measured using Amersham cGMP Enzyme Immunoassay Biotrak™ (EIA) System (dual range) according to the protocol attached thereto.

Series [3] can be described thus: Detection in blood after subcutaneous administration to a monkey. It counts as in vivo.
The next series deals with cGMP level in blood. Briefly: cGMP level in blood after subcutaneous administration to a monkey. Type of series: in vivo.
The next series deals with T1, human GC-A (Homo sapiens, UniProt P16066).
T1 construct: expressed in transfected cells; host or cells: CHO cells
T1 sequence (P16066 33-1061): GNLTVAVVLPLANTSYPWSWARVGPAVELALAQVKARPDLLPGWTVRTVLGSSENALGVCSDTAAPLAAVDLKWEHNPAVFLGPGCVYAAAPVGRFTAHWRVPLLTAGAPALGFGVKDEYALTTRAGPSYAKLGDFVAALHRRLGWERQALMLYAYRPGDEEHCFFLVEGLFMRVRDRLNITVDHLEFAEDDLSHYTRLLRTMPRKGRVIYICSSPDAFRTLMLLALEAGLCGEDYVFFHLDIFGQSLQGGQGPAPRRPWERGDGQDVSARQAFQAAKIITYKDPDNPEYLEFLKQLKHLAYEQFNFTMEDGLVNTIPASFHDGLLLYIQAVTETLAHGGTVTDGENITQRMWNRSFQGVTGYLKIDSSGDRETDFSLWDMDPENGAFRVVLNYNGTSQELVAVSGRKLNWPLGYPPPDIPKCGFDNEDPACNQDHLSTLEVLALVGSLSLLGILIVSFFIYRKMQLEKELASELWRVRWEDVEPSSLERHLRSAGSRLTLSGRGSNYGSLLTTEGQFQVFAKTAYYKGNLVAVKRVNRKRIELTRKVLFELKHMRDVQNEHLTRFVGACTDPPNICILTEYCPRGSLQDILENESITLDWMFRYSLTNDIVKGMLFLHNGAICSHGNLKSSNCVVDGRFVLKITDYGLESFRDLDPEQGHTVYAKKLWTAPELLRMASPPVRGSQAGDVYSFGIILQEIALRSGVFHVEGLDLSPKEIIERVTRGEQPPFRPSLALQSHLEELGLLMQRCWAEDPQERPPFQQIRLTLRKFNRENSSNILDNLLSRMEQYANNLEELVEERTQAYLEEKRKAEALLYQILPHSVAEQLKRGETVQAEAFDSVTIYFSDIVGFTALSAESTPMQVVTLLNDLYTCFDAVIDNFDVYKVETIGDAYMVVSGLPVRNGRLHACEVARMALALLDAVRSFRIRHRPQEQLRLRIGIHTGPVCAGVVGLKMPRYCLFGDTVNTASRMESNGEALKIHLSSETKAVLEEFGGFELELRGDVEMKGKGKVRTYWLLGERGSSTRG
The series is described as follows: cGMP elevating activity in CHO/human GC-A cells (Test Example 1). It counts as cell-based. The method in brief:
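cGMP in lysates was read by HTRF after a 15 min peptide exposure of GC-A-expressing CHO cells in a CO2 incubator, following 10 min room-temperature preincubation with 1.6 mM IBMX in KRB. T/C values were normalised between solvent wells (0) and 1 nM ANP wells (1).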

The results in this text go back to patent publication US10947289B2, “Glyco-modified atrial natriuretic peptide” (priority 2013, dated 2021).

SMILES strings stand for the structures.

`CC[C@H](C)[C@@H]1NC(=O)[C@H](CCCNC(=N)N)NC(=O)[C@H](CC(=O)O)NC(=O)[C@H](CCSC)NC(=O)[C@H](CCCNC(=N)N)NC(=O)CNC(=O)CNC(=O)[C@H](Cc2ccccc2)NC(=O)[C@@H](NC(=O)[C@H](CO)NC(=O)[C@H](CO)NC(=O)[C@H](CCCNC(=N)N)NC(=O)[C@H](CCCNC(=N)N)NC(=O)[C@H](CC(C)C)NC(=O)[C@@H](N)CO)CSSC[C@@H](C(=O)N[C@@H](CC(N)=O)C(=O)N[C@@H](CO)C(=O)N[C@@H](Cc2ccccc2)C(=O)N[C@@H](CCCNC(=N)N)C(=O)N[C@@H](Cc2ccc(O)cc2)C(=O)O)NC(=O)CNC(=O)[C@H](CC(C)C)NC(=O)CNC(=O)[C@H](CO)NC(=O)[C@H](CCC(N)=O)NC(=O)[C@H](C)NC(=O)CNC1=O` [Native hANP, hANP(1-28)]: in series [1], the “Maximum time of detection after administration” value came out at 0 h. Further, the “Detection of test substance in plasma sample” value in series [1] (rat, 15 minutes after the administration) is “no longer detected”. Further, the AUC60-240 in series [2] (plasma cGMP) was ≤ 0 pmol·h/mL. Besides, in series [2] (plasma cGMP, 0 to 240 minutes, Pre-value as baseline, points under baseline negative), the “All values integrated AUC 0-240” value was 13.90 (pmol/ml)*h. Moreover, the “All values integrated AUC 60-240” value in series [2] (plasma cGMP, 60 to 240 minutes, Pre-value as baseline, points under baseline negative) is recorded as −33.86 (pmol/ml)*h. Moreover, the “Pre-value and higher values integrated AUC 60-240” value in series [2] (plasma cGMP, 60 to 240 minutes, only points above baseline) is given as 0.00 (pmol/ml)*h. In series [2], the “Elevation of cGMP in plasma at 60 minutes or later” value was “disappeared completely” and the “cGMP level 30 minutes after the administration” value is reported as “a level close to that before the start of the administration”. Besides, in series [3], the “Detection in blood after administration” value is “no longer detected in blood 30 minutes after the administration”. The “Elevation of the cGMP level in blood after administration” value in the series with cGMP level in blood is given as “returns, 60 minutes after the administration, to the same level as that before the administration”.
Broadly, the EC50 is the concentration that produces a half-maximal response. For the compound `CC[C@H](C)[C@@H]1NC(=O)[C@H](CCCNC(=N)N)NC(=O)[C@H](CC(=O)O)NC(=O)[C@H](CCSC)NC(=O)[C@H](CCCNC(=N)N)NC(=O)CNC(=O)CNC(=O)[C@H](Cc2ccccc2)NC(=O)[C@@H](NC(=O)[C@H](CO)NC(=O)[C@H](CO)NC(=O)[C@H](CCCNC(=N)N)NC(=O)[C@H](CCCNC(=N)N)NC(=O)[C@H](CC(C)C)NC(=O)[C@H](CO)NC(=O)[C@@H](N)CC(=O)N[C@@H]2O[C@H](CO)[C@@H](O[C@@H]3O[C@H](CO)[C@@H](O[C@@H]4O[C@H](CO[C@H]5O[C@H](CO)[C@@H](O)[C@H](O)[C@@H]5O[C@@H]5O[C@H](CO)[C@@H](O[C@@H]6O[C@H](CO[C@]7(C(=O)O)C[C@H](O)[C@@H](NC(C)=O)[C@H]([C@H](O)[C@H](O)CO)O7)[C@H](O)[C@H](O)[C@H]6O)[C@H](O)[C@H]5NC(C)=O)[C@@H](O)[C@H](O[C@H]5O[C@H](CO)[C@@H](O)[C@H](O)[C@@H]5O[C@@H]5O[C@H](CO)[C@@H](O[C@@H]6O[C@H](CO[C@]7(C(=O)O)C[C@H](O)[C@@H](NC(C)=O)[C@H]([C@H](O)[C@H](O)CO)O7)[C@H](O)[C@H](O)[C@H]6O)[C@H](O)[C@H]5NC(C)=O)[C@@H]4O)[C@H](O)[C@H]3NC(C)=O)[C@H](O)[C@H]2NC(C)=O)CSSC[C@@H](C(=O)N[C@@H](CC(N)=O)C(=O)N[C@@H](CO)C(=O)N[C@@H](Cc2ccccc2)C(=O)N[C@@H](CCCNC(=N)N)C(=O)N[C@@H](Cc2ccc(O)cc2)C(=O)O)NC(=O)CNC(=O)[C@H](CC(C)C)NC(=O)CNC(=O)[C@H](CO)NC(=O)[C@H](CCC(N)=O)NC(=O)[C@H](C)NC(=O)CNC1=O` [Compound 2-3, (SG-)Asn-hANP(1-28)], in series [1], the “Maximum time of detection after administration” value stood at 2 h. For the same compound, at human GC-A, the EC50 came out at 0.12 nM.
